Experimental data as given in patent US5462935A, “Cephalosporin compounds” (Lucky Limited, priority 1990, dated 1995).
Converted amounts (≈) assume the structure as drawn. Where two headings read alike, the source gives them in different places.

How the values were obtained:
[1] = acute toxicity test, intravenous; conditions: mouse, in vivo, ICR mice, observed for 14 days
Description: The results are shown in the last row of Table 2.

[2] = in vivo absorbency test (plasma concentration, pharmacokinetic parameters); parameters: species or system SD rats (male); conditions: rat, iv, 20 mg/kg, rats; for half-life / concentration at 1 min / concentration at 2.5 min / concentration at 5 min / concentration at 10 min / concentration at 20 min / concentration at 40 min / concentration at 1 h / concentration at 2 h / concentration at 3 h / AUC: plasma; for half-life / AUC: Two-Compartment Model; for concentration at 1 min / concentration at 2.5 min / concentration at 5 min / concentration at 10 min / concentration at 20 min / concentration at 40 min / concentration at 1 h / concentration at 2 h / concentration at 3 h: read-out: Plasma Conc.; for concentration at 1 h: 60 min; for concentration at 2 h: 120 min; for concentration at 3 h: 180 min; for AUC: read-out: ACU (converted); for dose excreted: urine, read-out: Urinary recovery
Procedure: In addition to the in vitro tests described above, in vivo absorbency tests for the two selected compounds of formulas (I-S-1) and (I-R-1), along with Ceftadizime, were carried out by administering intravenously, in a dose of 20 mg/kg, each of these two compounds into SD rats (male) weighing 220 to 340 g; […], which were analyzed by employing the bio-assay or agar well method. About 10 to 15 rats were used for each of the compounds.
Notes: (1) Two-Compartment Model
(3) Tested Animal: Rats(male; 220-340 g)

[3] = tested on: Staphylococcus epidermidis ATCC 10537; assay: minimal inhibitory concentration, two-fold agar dilution; type: cell-based; conditions: ATCC10537, Muller-Hinton agar, 37° C., 20 hours
Procedure: (§1) These NIC values were taken by employing a two-fold dilution method: that is, two-fold serial dilutions of each of the test compounds were made and dispersed in a Muller-Hinton agar medium; 2 μl of the standard test strain which had the 10^7 CFU (Colony Forming Unit) per ml was inoculated on the medium; and these were incubated at 37° C. for 20 hours.

[4] = tested on: Escherichia coli ATCC 25922; assay: as above; type: cell-based; conditions: ATCC25922, Muller-Hinton agar, 37° C., 20 hours
Procedure: as §1

[5] = tested on: Bacillus megaterium ATCC 9885; assay: as above; type: cell-based; conditions: Priestia megaterium, ATCC9885, 20 h
Procedure: as §1

[6] = tested on: Enterobacter aerogenes ATCC 29751; assay: as above; type: cell-based; conditions: Klebsiella aerogenes, ATCC29751, 20 h
Procedure: as §1

[7] = tested on: Pseudomonas aerugionsa ATCC 27853; assay: as above; type: cell-based; conditions: ATCC27853, Muller-Hinton agar, 37° C., 20 hours
Procedure: as §1

[8] = tested on: Morganella morganii ATCC 8076h; assay: as above; type: cell-based; conditions: ATCC8076H, 20 h
Procedure: as §1

[9] = tested on: Proteus mirabilis ATCC 25933; assay: as above; type: cell-based; conditions: ATCC25933, Muller-Hinton agar, 37° C., 20 hours
Procedure: as §1

[10] = tested on: Citrobacter freundii ATCC 8090; assay: as above; type: cell-based; conditions: ATCC8090, Muller-Hinton agar, 37° C., 20 hours
Procedure: as §1

[11] = tested on: Salmonella typhimurium ATCC 14028; assay: as above; type: cell-based; conditions: Salmonella enterica, Muller-Hinton agar, 37° C., 20 hours
Procedure: as §1

[12] = tested on: Shigella sonnei ATCC 11060; assay: as above; type: cell-based; conditions: ATCC11060, Muller-Hinton agar, 37° C., 20 hours
Procedure: as §1

ATCC 12228 = assay: as above; type: cell-based; conditions: Staphylococcus faecalis, ATCC12228, 20 h
Procedure: as §1

[13] = tested on: Bacillus cereus ATCC 11778; assay: as above; type: cell-based; conditions: Bacillus cereus, ATCC11778, 20 h
Procedure: as §1

[14] = tested on: Klebsiella pneumoniae ATCC 10031; assay: as above; type: cell-based; conditions: ATCC10031, Muller-Hinton agar, 37° C., 20 hours
Procedure: as §1

[15] = tested on: Enterobacter cloacae ATCC 27508; assay: as above; type: cell-based; conditions: ATCC27508, Muller-Hinton agar, 37° C., 20 hours
Procedure: as §1

[16] = tested on: Micrococcus luteus ATCC 9341; assay: as above; type: cell-based; conditions: ATCC9341, Muller-Hinton agar, 37° C., 20 hours
Procedure: as §1

[17] = tested on: Pseudomonas aeruginosa ATCC 25619; assay: as above; type: cell-based; conditions: ATCC25619, Muller-Hinton agar, 37° C., 20 hours
Procedure: as §1

[18] = tested on: Staphylococcus aureus ATCC 6638p; assay: as above; type: cell-based; conditions: ATCC6638P, 20 h
Procedure: as §1

[19] = tested on: Serratia marcescens ATCC 27117; assay: as above; type: cell-based; conditions: ATCC27117, Muller-Hinton agar, 37° C., 20 hours
Procedure: as §1

[20] = tested on: Pseudomonas aerugionsa ATCC 10145; assay: as above; type: cell-based; conditions: ATCC10145, Muller-Hinton agar, 37° C., 20 hours
Procedure: as §1

[21] = tested on: Streptococcus faecalis ATCC 29212; assay: as above; type: cell-based; conditions: Enterococcus faecalis, ATCC29212, Muller-Hinton agar, 37° C., 20 hours
Procedure: as §1

[22] = tested on: Escherichia coli ATCC 10536; assay: as above; type: cell-based; conditions: ATCC10536, Muller-Hinton agar, 37° C., 20 hours
Procedure: as §1

[23] = tested on: Shigella flexneri ATCC 11836; assay: as above; type: cell-based; conditions: ATCC11836, Muller-Hinton agar, 37° C., 20 hours
Procedure: as §1

[24] = tested on: Acinetobacter calcoaceticus ATCC 15473; assay: as above; type: cell-based; conditions: ATCC15473, Muller-Hinton agar, 37° C., 20 hours
Procedure: as §1

[25] = tested on: Proteus vulgaris ATCC 6059; assay: as above; type: cell-based; conditions: ATCC6059, Muller-Hinton agar, 37° C., 20 hours
Procedure: as §1

[26] = tested on: Providencia rettgeri ATCC 9250; assay: as above; type: cell-based; conditions: ATCC9250, Muller-Hinton agar, 37° C., 20 hours
Procedure: as §1

Structure (SMILES)	LD50 at 336 h [1]	half-life ([2]; read-out: T1/1(β))	half-life ([2]; read-out: T1/2(α))	concentration at 1 min [2]	concentration at 2.5 min [2]	concentration at 5 min [2]	concentration at 10 min [2]	concentration at 20 min [2]	concentration at 40 min [2]	concentration at 1 h [2]	concentration at 2 h [2]	concentration at 3 h [2]	AUC [2]	dose excreted [2]	MIC [3]	MIC [4]	MIC [5]	MIC [6]	MIC [7]	MIC [8]	further results
C[C@@H](O/N=C(\C(=O)NC1C(=O)N2C(C(=O)[O-])=C(CSc3nc(N)cc(N)[n+]3N)CS[C@H]12)c1csc(N)n1)C(=O)O (stereo partly drawn) [I-R-1, 7-[(Z)-2-(2-aminothiazol-4-yl)-2-[(R)-1-carboxyeth-1-oxyimino]acetamido]-3-[(1,4,6-triaminopyrimidinium-2-yl)thiomethyl]-3-cephem-4-carboxylate]	> 5000 mg/kg	30 min	4.7 min	170000 ng/mL	102000 ng/mL	76900 ng/mL	57000 ng/mL	39100 ng/mL	17700 ng/mL	10100 ng/mL	2500 ng/mL	700 ng/mL	45800 ng·h/mL	91%	4 µg/mL (≈ 6.55 µM)	0.031 µg/mL (≈ 0.0508 µM)	0.5 µg/mL (≈ 0.819 µM)	0.5 µg/mL (≈ 0.819 µM)	1 µg/mL (≈ 1.64 µM)	≤ 0.008 µg/mL	MIC [9]: 0.031 µg/mL (≈ 0.0508 µM); MIC [10]: 0.031 µg/mL (≈ 0.0508 µM); MIC [11]: 0.063 µg/mL (≈ 0.103 µM); MIC [12]: 0.016 µg/mL (≈ 0.0262 µM); MIC (ATCC 12228): 2 µg/mL (≈ 3.28 µM); MIC [13]: 128 µg/mL (≈ 210 µM); MIC [14]: 0.031 µg/mL (≈ 0.0508 µM); MIC [15]: 0.016 µg/mL (≈ 0.0262 µM); MIC [16]: 1 µg/mL (≈ 1.64 µM); MIC [17]: 0.5 µg/mL (≈ 0.819 µM); MIC [18]: 8 µg/mL (≈ 13.1 µM); MIC [19]: 0.031 µg/mL (≈ 0.0508 µM); MIC [20]: 2 µg/mL (≈ 3.28 µM); MIC [21]: > 128 µg/mL; MIC [22]: 0.031 µg/mL (≈ 0.0508 µM); MIC [23]: ≤ 0.008 µg/mL; MIC [24]: 2 µg/mL (≈ 3.28 µM); MIC [25]: 0.031 µg/mL (≈ 0.0508 µM); MIC [26]: ≤ 0.008 µg/mL
C[C@H](O/N=C(\C(=O)NC1C(=O)N2C(C(=O)[O-])=C(CSc3nc(N)cc(N)[n+]3N)CS[C@H]12)c1csc(N)n1)C(=O)O (stereo partly drawn) [I-S-1, 7-[(Z)-2-(2-aminothiazol-4-yl)-2-[(S)-1-carboxyeth-1-oxyimino]acetamido]-3-[(1,4,6-triaminopyrimidinium-2-yl)thiomethyl]-3-cephem-4-carboxylate]	> 5000 mg/kg	37.5 min	7.6 min	147000 ng/mL	102000 ng/mL	72600 ng/mL	57300 ng/mL	37000 ng/mL	19600 ng/mL	11200 ng/mL	3100 ng/mL	1500 ng/mL	47700 ng·h/mL	93%	2 µg/mL (≈ 3.28 µM)	0.031 µg/mL (≈ 0.0508 µM)	0.13 µg/mL (≈ 0.213 µM)	0.5 µg/mL (≈ 0.819 µM)	0.5 µg/mL (≈ 0.819 µM)	≤ 0.008 µg/mL	MIC [9]: 0.016 µg/mL (≈ 0.0262 µM); MIC [10]: 0.031 µg/mL (≈ 0.0508 µM); MIC [11]: 0.063 µg/mL (≈ 0.103 µM); MIC [12]: 0.031 µg/mL (≈ 0.0508 µM); MIC (ATCC 12228): 2 µg/mL (≈ 3.28 µM); MIC [13]: 32 µg/mL (≈ 52.4 µM); MIC [14]: 0.031 µg/mL (≈ 0.0508 µM); MIC [15]: 0.016 µg/mL (≈ 0.0262 µM); MIC [16]: 0.25 µg/mL (≈ 0.409 µM); MIC [17]: 0.5 µg/mL (≈ 0.819 µM); MIC [18]: 4 µg/mL (≈ 6.55 µM); MIC [19]: 0.031 µg/mL (≈ 0.0508 µM); MIC [20]: 1 µg/mL (≈ 1.64 µM); MIC [21]: > 128 µg/mL; MIC [22]: 0.031 µg/mL (≈ 0.0508 µM); MIC [23]: 0.016 µg/mL (≈ 0.0262 µM); MIC [24]: 2 µg/mL (≈ 3.28 µM); MIC [25]: 0.016 µg/mL (≈ 0.0262 µM); MIC [26]: ≤ 0.008 µg/mL
